Measured values: patent US10953012B2, “Heterocyclic compounds for the inhibition of pask” (BioEnergenix LLC, priority 2011, dated 2021)

Legend:
CK2a2 = CK2a2 (Homo sapiens (Human), UniProt P19784); experiment: Biochemical Assay for CK2 Activity; settings: 33P-ATP radiochemical assay; read-out: IC50 CK2 a2
Description: Biochemical Assay for CK2 Activity
Purified CK2a2 (NP_001887; human full-length protein, GST tagged) from insect cells (final concentration 1.2 nM) is added to freshly prepared Base Reaction Buffer containing 20 mM Hepes (pH 7.5), 10 mM MgCl2, 1 mM EGTA, 0.02% Brij35, 0.02 mg/ml BSA, 0.1 mM Na3VO4, 2 mM DTT, 1% DMSO and CK2 sub [RRRDDDSDDD] (20 μM final). Test compounds in DMSO are then added and the mixture, followed by delivery of ^33P-ATP (specific activity 0.01 μCi/μl final) to initiate the reaction. The kinase reaction is incubated for 120 min at room temperature. The entire reaction mixture is washed through onto a P81 Phosphocellulose paper and washed three times for 10 minutes in 75 mM phosphoric acid and once in methanol prior to drying and scintillation counting.

PASK [1] = molecular target: PASK (Homo sapiens (Human), UniProt Q96RG2); experiment: PAS Kinase FRET Assay; assay type: biochemical; settings: TR-FRET assay; read-out: IC50 Kinase Domain
Summary of the method: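 TR-FRET read-out (665/615 nm) of ULight-peptide phosphorylation by PASK, detected with Eu-labelled anti-phospho antibody. Compound, kinase and substrate/ATP reacted 2 h at 25 °C in the dark in 50 mM HEPES, 10 mM MgCl2, 1 mM EGTA, 0.01% Tween-20, 2 mM DTT. Eleven-point dilution series made at 4× final.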

PASK [2] = molecular target: PASK (UniProt #Q96RG2; residues 879-1323) (Homo sapiens (Human), UniProt Q96RG2); experiment: PASK ATP Radiochemical Assay; assay type: biochemical; settings: 33P-ATP radiochemical assay; read-out: IC50 Kinase Domain
Description: PASK ATP Radiochemical Assay Purified PASK (UniProt #Q96RG2; human recombinant N-terminal GST tagged construct, residues 879-1323) from insect cells (final concentration 5 nM) is added to freshly prepared Base Reaction Buffer containing 20 mM HEPES (pH 7.5), 10 mM MgCl2, 1 mM EGTA, 0.02% Brij35, 0.02 mg/ml BSA, 0.1 mM Na3VO4, 2 mM DTT, 1% DMSO and Myelin Basic Protein (20 μM final). Test compounds in DMSO are then added and the mixture, followed by delivery of ^33P-ATP (specific activity 0.01 μCi/μl final) to initiate the reaction. The kinase reaction is incubated for 120 min at room temperature. The entire reaction mixture is washed through onto a P81 Phosphocellulose paper and washed three times for 10 minutes in 75 mM phosphoric acid and once in methanol prior to drying and scintillation counting.

PASK (UniProt #Q96RG2; residues 879-1323) (Homo sapiens (Human), UniProt Q96RG2), sequence (Q96RG2 879-1323): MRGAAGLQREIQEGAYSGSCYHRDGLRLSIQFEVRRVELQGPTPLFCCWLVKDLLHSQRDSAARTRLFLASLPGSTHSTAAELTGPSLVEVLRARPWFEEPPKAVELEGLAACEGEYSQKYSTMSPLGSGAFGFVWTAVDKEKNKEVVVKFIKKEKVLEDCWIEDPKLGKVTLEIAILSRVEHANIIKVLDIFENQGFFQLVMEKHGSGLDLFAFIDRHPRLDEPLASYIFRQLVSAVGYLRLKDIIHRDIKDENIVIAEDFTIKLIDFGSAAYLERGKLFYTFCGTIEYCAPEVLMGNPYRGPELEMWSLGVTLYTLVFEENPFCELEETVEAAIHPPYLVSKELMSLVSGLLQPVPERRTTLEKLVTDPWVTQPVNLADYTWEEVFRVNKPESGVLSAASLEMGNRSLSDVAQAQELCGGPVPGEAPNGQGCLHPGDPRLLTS
CK2a2, sequence (P19784 whole entry): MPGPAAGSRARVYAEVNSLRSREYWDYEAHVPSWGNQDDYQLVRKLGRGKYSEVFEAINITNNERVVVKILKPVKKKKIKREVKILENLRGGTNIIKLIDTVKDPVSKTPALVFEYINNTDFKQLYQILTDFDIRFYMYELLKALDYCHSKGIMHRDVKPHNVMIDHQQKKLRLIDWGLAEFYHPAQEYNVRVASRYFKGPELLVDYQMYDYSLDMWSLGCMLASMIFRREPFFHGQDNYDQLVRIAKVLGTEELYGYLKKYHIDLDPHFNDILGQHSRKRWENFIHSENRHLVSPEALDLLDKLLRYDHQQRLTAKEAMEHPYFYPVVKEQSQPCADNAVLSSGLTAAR
PASK (Homo sapiens (Human), UniProt Q96RG2), sequence (Q96RG2 999-1251): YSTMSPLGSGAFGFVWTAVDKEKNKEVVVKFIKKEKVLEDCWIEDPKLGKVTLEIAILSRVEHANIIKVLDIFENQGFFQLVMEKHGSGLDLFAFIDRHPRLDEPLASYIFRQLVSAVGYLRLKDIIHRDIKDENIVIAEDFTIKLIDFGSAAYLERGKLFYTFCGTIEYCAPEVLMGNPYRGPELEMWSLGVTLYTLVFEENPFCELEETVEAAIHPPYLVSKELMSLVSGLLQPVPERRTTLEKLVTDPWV

Structure (SMILES) | IC50 (CK2a2) [µM] | IC50 (PASK [1]) [µM] | IC50 (PASK [2]) [µM]
O=c1cc(-c2ccc3occc3c2)[nH]c2c(-c3ccccc3)c(O)nn12 [Example 127, 5-(Benzofuran-5-yl)-2-hydroxy-3-phenylpyrazolo[1,5-a]pyrimidin-7(4H)-one] | ≤ 10 | ≤ 10 | ≤ 10
O=c1cc(-c2ccc(Cl)cc2)[nH]c2c(-c3cccnc3)c(O)nn12 [Example 128, 5-(4-Chlorophenyl)-2-hydroxy-3-(pyridin-3-yl)pyrazolo[1,5-a]pyrimidin-7(4H)-one] | ≥ 10 | ≤ 10 | ≤ 10
O=c1cc(-c2ccc3c(c2)CCO3)[nH]c2c(-c3ccccn3)c(O)nn12 [Example 129, 5-(2,3-Dihydrobenzofuran-5-yl)-2-hydroxy-3-(pyridin-2-yl)pyrazolo[1,5-a]pyrimidin-7(4H)-one] | ≥ 10 | ≤ 10 | ≤ 10
O=c1cc(-c2ccc3c(c2)CCO3)[nH]c2c(-c3cccnc3)c(O)nn12 [Example 130, 5-(2,3-Dihydrobenzofuran-5-yl)-2-hydroxy-3-(pyridin-3-yl)pyrazolo[1,5-a]pyrimidin-7(4H)-one] | ≤ 10 | ≤ 10 | ≤ 10
O=c1cc(-c2ccc3occc3c2)[nH]c2c(-c3ccccn3)c(O)nn12 [Example 131, 5-(Benzofuran-5-yl)-2-hydroxy-3-(pyridin-2-yl)pyrazolo[1,5-a]pyrimidin-7(4H)-one] | ≤ 10 | ≤ 10 | ≤ 10
O=c1cc(-c2ccc3c(c2)OCO3)[nH]c2c(Cc3ccccc3)cnn12 [Example 133, 5-(Benzo[d][1,3]dioxol-5-yl)-3-benzylpyrazolo[1,5-a]pyrimidin-7(4H)-one] | ≤ 10 | ≤ 10 | ≤ 10
COc1ccccc1-c1cc(=O)n2ncc(-c3ccccn3)c2[nH]1 [Example 135, 5-(2-Methoxyphenyl)-3-(pyridin-2-yl)pyrazolo[1,5-a]pyrimidin-7(4H)-one] | ≤ 10 | ≤ 10 | ≤ 10
O=c1cc(-c2ccc(F)cc2)[nH]c2c(-c3ccccn3)c(O)nn12 [Example 137, 5-(4-Fluorophenyl)-2-hydroxy-3-(pyridin-2-yl)pyrazolo[1,5-a]pyrimidin-7(4H)-one] | ≥ 10 | ≤ 10 | ≤ 10
Nc1nn2c(=O)cc(-c3ccc(Cl)cc3)[nH]c2c1-c1ccccc1 [Example 141, 2-Amino-5-(4-chlorophenyl)-3-phenylpyrazolo[1,5-a]pyrimidin-7(4H)-one] | ≤ 10 | ≤ 10 | ≤ 10
Nc1nn2c(=O)cc(-c3ccc4c(c3)OCCO4)[nH]c2c1-c1ccccc1 [Example 142, 2-Amino-5-(2,3-dihydrobenzo[b][1,4]dioxin-6-yl)-3-phenylpyrazolo[1,5-a]pyrimidin-7(4H)-one] | ≤ 10 | ≤ 10 | ≤ 10
CN(Cc1ccccc1)C(=O)c1cnn2c(=O)cc(-c3ccc4c(c3)OCCO4)[nH]c12 [Example 143, N-Benzyl-5-(2,3-dihydrobenzo[b][1,4]dioxin-6-yl)-N-methyl-7-oxo-4,7-dihydropyrazolo[1,5-a]pyrimidine-3-carboxamide] | ≤ 10 | ≤ 10 | ≤ 10
O=C(NCc1ccccc1)c1cnn2c(=O)cc(-c3ccc(Cl)cc3)[nH]c12 [Example 144, N-Benzyl-5-(4-chlorophenyl)-7-oxo-4,7-dihydropyrazolo[1,5-a]pyrimidine-3-carboxamide] | ≤ 10 | ≤ 10 | ≤ 10
CCCNC(=O)c1cnn2c(=O)cc(-c3ccc4c(c3)OCCO4)[nH]c12 [Example 145, 5-(2,3-Dihydrobenzo[b][1,4]dioxin-6-yl)-7-oxo-N-propyl-4,7-dihydropyrazolo[1,5-a]pyrimidine-3-carboxamide] | ≤ 10 | ≤ 10 | ≤ 10
O=c1cc(-c2ccc3occc3c2)[nH]c2c(-c3cccnc3)c(O)nn12 [Example 147, 5-(Benzofuran-5-yl)-2-hydroxy-3-(pyridin-3-yl)pyrazolo[1,5-a]pyrimidin-7(4H)-one] | ≤ 10 | ≤ 10 | ≤ 10
Nc1nn2c(=O)cc(-c3ccc4c(c3)OCCO4)[nH]c2c1-c1ccccn1 [Example 148, 2-Amino-5-(2,3-dihydrobenzo[b][1,4]dioxin-6-yl)-3-(pyridin-2-yl)pyrazolo[1,5-a]pyrimidin-7(4H)-one] | ≤ 10 | ≤ 10 | ≤ 10
Nc1nn2c(=O)cc(-c3ccc4c(c3)OCO4)[nH]c2c1-c1ccccn1 [Example 150, 2-Amino-5-(benzo[d][1,3]dioxol-5-yl)-3-(pyridin-2-yl)pyrazolo[1,5-a]pyrimidin-7(4H)-one] | ≤ 10 | ≤ 10 | ≤ 10
Nc1nn2c(=O)cc(-c3ccc(Cl)cc3)[nH]c2c1-c1ccccn1 [Example 152, 2-Amino-5-(4-chlorophenyl)-3-(pyridin-2-yl)pyrazolo[1,5-a]pyrimidin-7(4H)-one] | ≤ 10 | ≤ 10 | ≤ 10
CC(=O)Nc1nn2c(=O)cc(-c3ccc4c(c3)OCO4)[nH]c2c1-c1ccccn1 [Example 155, N-(5-(Benzo[d][1,3]dioxol-5-yl)-7-oxo-3-(pyridin-2-yl)-4,7-dihydropyrazolo[1,5-a]pyrimidin-2-yl)acetamide] | ≤ 10 | ≤ 10 | ≤ 10
CCNc1nn2c(=O)cc(-c3ccc4c(c3)OCO4)[nH]c2c1-c1ccccn1 [Example 156, 5-(Benzo[d][1,3]dioxol-5-yl)-2-(ethylamino)-3-(pyridin-2-yl)pyrazolo[1,5-a]pyrimidin-7(4H)-one] | ≤ 10 | ≤ 10 | ≤ 10
O=c1cc(-c2ccc3c(c2)OC(F)(F)O3)[nH]c2c(-c3ccccn3)cnn12 [Example 158, 5-(2,2-Difluorobenzo[d][1,3]dioxol-5-yl)-3-(pyridin-2-yl)pyrazolo[1,5-a]pyrimidin-7(4H)-one] | ≤ 10 | ≤ 10 | ≤ 10
Nc1nn2c(=O)cc(-c3ccc4[nH]ncc4c3)[nH]c2c1-c1ccccn1 [Example 159, 2-Amino-5-(1H-indazol-5-yl)-3-(pyridin-2-yl)pyrazolo[1,5-a]pyrimidin-7(4H)-one] | ≤ 10 | ≤ 10 | ≤ 10
O=c1cc(-c2ccc3[nH]ncc3c2)[nH]c2c(-c3ccccn3)cnn12 [Example 160, 5-(1H-Indazol-5-yl)-3-(pyridin-2-yl)pyrazolo[1,5-a]pyrimidin-7(4H)-one] | ≤ 10 | ≤ 10 | ≤ 10
CCc1nn2c(=O)cc(-c3ccc4c(c3)OCO4)[nH]c2c1-c1ccccn1 [Example 161, 5-(Benzo[d][1,3]dioxol-5-yl)-2-ethyl-3-(pyridin-2-yl)pyrazolo[1,5-a]pyrimidin-7(4H)-one] | ≤ 10 | ≤ 10 | ≤ 10
Nc1nn2c(=O)cc(-c3ccc(Cl)cc3F)[nH]c2c1-c1ccccn1 [Example 163, 2-Amino-5-(4-chloro-2-fluorophenyl)-3-(pyridin-2-yl)pyrazolo[1,5-a]pyrimidin-7(4H)-one] | ≤ 10 | ≤ 10 | ≤ 10
O=c1cc(-c2ccc3c(c2)OCO3)[nH]c2c(-c3ncccc3F)cnn12 [Example 164, 5-(Benzo[d][1,3]dioxol-5-yl)-3-(3-fluoropyridin-2-yl)pyrazolo[1,5-a]pyrimidin-7(4H)-one] | ≤ 10 | ≤ 10 | ≤ 10
Nc1nn2c(=O)cc(-c3ccc(F)cc3)[nH]c2c1-c1ccccn1 [Example 171, 2-Amino-5-(4-fluorophenyl)-3-(pyridin-2-yl)pyrazolo[1,5-a]pyrimidin-7(4H)-one] | ≤ 10 | ≤ 10 | ≤ 10
Nc1nn2c(=O)cc(-c3ccc4[nH]nnc4c3)[nH]c2c1-c1ccccn1 [Example 191, 2-Amino-5-(1H-benzo[d][1,2,3]triazol-5-yl)-3-(pyridin-2-yl)pyrazolo[1,5-a]pyrimidin-7(4H)-one] | ≤ 10 | ≤ 10 | ≤ 10
O=c1cc(-c2ccc3[nH]nnc3c2)[nH]c2c(-c3ccccn3)c(O)nn12 [Example 193, 5-(1H-Benzo[d][1,2,3]triazol-5-yl)-2-hydroxy-3-(pyridin-2-yl)pyrazolo[1,5-a]pyrimidin-7(4H)-one] | ≤ 10 | ≤ 10 | ≤ 10
